Data set [1] relates to PANC-1, C6, MCF-7, U2OS and HT1080. As to conditions: 48 hours; for reduction in cell survival, drug alone: non-resistant cell lines, 0.1 μg/ml DOX or 0.3 μg/ml VIN alone. The procedure: Studies similar in general to those outlined in the previous section, were conducted with five cell lines selected for this task (PANC-1, C6, MCF-7, U2OS and HT1080), increasing the length of the experiment to 48 hours. The studies were done with DOX and with Vinblastine (VIN or VLB).

For data set [2], the system named is C6 cells. To be noted: cells loaded with 0.1 μg/ml DOX alone. The method, then:
Cells were grown in monolayers as described above. […] Control cells received media alone.

The next data set concerns C-26 cells. The experiment in a line: Solid tumor model, C-26 cells injected into footpad. Type of data set: in vivo, mice. As to conditions: for solid tumor volume with time, single agent: fluoxetine 0.04 mg/kg daily orally alone, or MMC or DOX 5 mg/kg i.v. alone. The method, then:
In the solid tumor model, C-26 cells were injected into the animal's right-hind footpad.
In the solid tumor model, Mitomycin C (MMC) and Doxorubicin (DOX), were tested separately, each at a dose of 5 mg/kg body.

In the next data set the test system is B16F10 cells. To be noted: for lung metastatic burden (lung weight increase, number of lung metastasis), single agent: fluoxetine 0.04 mg/kg daily orally alone, or Doxorubicin 10 mg/kg i.v. alone.
Data set [3] relates to C6 cells. On the set-up: effect on cell survival: dose or concentration left out as unconfirmed. As to conditions: 24 hours; for enhancement in cell death by the combination treatment: vs drug alone.
For a further data set, the system named is PANC-1 cells. On the set-up: effect on cell survival: dose or concentration left out as unconfirmed. As to conditions: 24 hours; for enhancement in cell death by the combination treatment: vs drug alone.
In the next data set the test system is fibrosarcoma cells. To be noted: doses equivalent to 20-40 mg/M^2; cited from earlier work.
Data set [4] concerns concavalin A-stimulated normal lymphocytes. As to conditions: doses equivalent to 20-40 mg/M^2; cited from earlier work.
For data set [5] the following is noted: daily dose; cited from earlier work.
The mark [6] stands for this setting: […] μM fluoxetine + 0.1 μg/ml Doxorubicin.
[7] abbreviates: […] μM fluoxetine + 30 μg/ml Mitomycin C.

Like-named read-outs stand apart in the source and are kept apart here.

As for `COc1cccc2c1C(=O)c1c(O)c3c(c(O)c1C2=O)C[C@@](O)(C(=O)CO)C[C@@H]3O[C@H]1C[C@H](N)[C@H](O)[C@H](C)O1` [Doxorubicin], the “reduction in cell survival, drug alone” value in [1] was found to be 50%. Further, the “depletion of intracellular DOX at 2 hours” value with C6 cells [2] is on record as 100%. Besides, the “solid tumor volume with time, single agent” value (shortened to “solid tumor volume with time”) in the data set on C-26 cells is “increases fast and exponentially”. For the same compound, the “lung metastatic burden (lung weight increase, number of lung metastasis), single agent” value in the data set with B16F10 cells was “only a mild reduction”.

As for `CO[C@@]12[C@H](COC(N)=O)C3=C(C(=O)C(C)=C(N)C3=O)N1C[C@@H]1N[C@@H]12` [Mitomycin C], the “solid tumor volume with time” value in the data set with C-26 cells was “increases fast and exponentially”.

With `CC[C@]1(O)C[C@@H]2CN(CCc3c([nH]c4ccccc34)[C@@](C(=O)OC)(c3cc4c(cc3OC)N(C)[C@H]3[C@@](O)(C(=O)OC)[C@H](OC(C)=O)[C@]5(CC)C=CCN6CC[C@]43[C@@H]65)C2)C1` [Vinblastine], the “reduction in cell survival, drug alone” value in data set [1] is recorded as 50%.

With `CNCCC(Oc1ccc(C(F)(F)F)cc1)c1ccccc1` (stereo not shown) [fluoxetine, N-methyl 3-(p-trifluoromethylphenoxy)-3-phenylpropylamine], the “toxicity to the cells, fluoxetine alone” value in data set [1] (fluoxetine alone, 0-15 μM) is “not toxic”. The prolongation of survival with C-26 cells (DOX+CS vs saline, CS alone and DOX alone) was found to be 3 fold; in the data set on C-26 cells (MMC+CS vs saline, CS alone and MMC alone), 2 fold. The “solid tumor size and growth, combination therapy” value with C-26 cells (fluoxetine 0.04 mg/kg daily orally + DOX 5 mg/kg i.v.) and in the data set with C-26 cells (fluoxetine 0.04 mg/kg daily orally + MMC 5 mg/kg i.v.) was “tumors are substantially smaller” throughout. For the same compound, the “solid tumor volume with time” value with C-26 cells is “increases fast and exponentially”. Also, the “enhancement in cell death by the combination treatment” value with C6 cells [3] (setting [6]), in the data set with C6 cells [3] (setting [7]), in the data set with PANC-1 cells (setting [6]) and in the data set on PANC-1 cells (setting [7]) was 3-4 fold throughout. Moreover, the “effect on cell survival” value in the data set with C6 cells [3] ([…] μM fluoxetine alone) and with PANC-1 cells ([…] μM fluoxetine alone) was “does not affect cell survival at all” in each case. The “effect on proliferation of fibrosarcoma cells” value in the data set on fibrosarcoma cells was “promotes the proliferation”. The “effect on proliferation of concavalin A-stimulated normal lymphocytes” value in data set [4] was “inhibits the proliferation”. The “known, acceptable safety limit” value in [5] is listed as 80 mg/M^2. The “survival, single agent” value with B16F10 cells (CS alone or CT alone, 75-days experiment) is listed as “died rather early”. Besides, in the data set on B16F10 cells (fluoxetine 0.04 mg/kg daily orally + Doxorubicin 10 mg/kg i.v.), the “lung metastatic burden, combination treatment” value is listed as “substantial reduction”. For the same compound, the “lung metastatic burden (lung weight increase, number of lung metastasis), single agent” value in the data set on B16F10 cells is reported as “highest metastatic burden”. Moreover, the “survival, combination treatment” value in the data set on B16F10 cells (fluoxetine + Doxorubicin, 75-days experiment) is listed as “long survivors”.

Source of the values: US20040266882A1 (priority 2001, published 2004).
